Experiment [1] concerns the target T1, Peregrin (Homo sapiens) (UniProt P55201).
T1 sequence (whole entry): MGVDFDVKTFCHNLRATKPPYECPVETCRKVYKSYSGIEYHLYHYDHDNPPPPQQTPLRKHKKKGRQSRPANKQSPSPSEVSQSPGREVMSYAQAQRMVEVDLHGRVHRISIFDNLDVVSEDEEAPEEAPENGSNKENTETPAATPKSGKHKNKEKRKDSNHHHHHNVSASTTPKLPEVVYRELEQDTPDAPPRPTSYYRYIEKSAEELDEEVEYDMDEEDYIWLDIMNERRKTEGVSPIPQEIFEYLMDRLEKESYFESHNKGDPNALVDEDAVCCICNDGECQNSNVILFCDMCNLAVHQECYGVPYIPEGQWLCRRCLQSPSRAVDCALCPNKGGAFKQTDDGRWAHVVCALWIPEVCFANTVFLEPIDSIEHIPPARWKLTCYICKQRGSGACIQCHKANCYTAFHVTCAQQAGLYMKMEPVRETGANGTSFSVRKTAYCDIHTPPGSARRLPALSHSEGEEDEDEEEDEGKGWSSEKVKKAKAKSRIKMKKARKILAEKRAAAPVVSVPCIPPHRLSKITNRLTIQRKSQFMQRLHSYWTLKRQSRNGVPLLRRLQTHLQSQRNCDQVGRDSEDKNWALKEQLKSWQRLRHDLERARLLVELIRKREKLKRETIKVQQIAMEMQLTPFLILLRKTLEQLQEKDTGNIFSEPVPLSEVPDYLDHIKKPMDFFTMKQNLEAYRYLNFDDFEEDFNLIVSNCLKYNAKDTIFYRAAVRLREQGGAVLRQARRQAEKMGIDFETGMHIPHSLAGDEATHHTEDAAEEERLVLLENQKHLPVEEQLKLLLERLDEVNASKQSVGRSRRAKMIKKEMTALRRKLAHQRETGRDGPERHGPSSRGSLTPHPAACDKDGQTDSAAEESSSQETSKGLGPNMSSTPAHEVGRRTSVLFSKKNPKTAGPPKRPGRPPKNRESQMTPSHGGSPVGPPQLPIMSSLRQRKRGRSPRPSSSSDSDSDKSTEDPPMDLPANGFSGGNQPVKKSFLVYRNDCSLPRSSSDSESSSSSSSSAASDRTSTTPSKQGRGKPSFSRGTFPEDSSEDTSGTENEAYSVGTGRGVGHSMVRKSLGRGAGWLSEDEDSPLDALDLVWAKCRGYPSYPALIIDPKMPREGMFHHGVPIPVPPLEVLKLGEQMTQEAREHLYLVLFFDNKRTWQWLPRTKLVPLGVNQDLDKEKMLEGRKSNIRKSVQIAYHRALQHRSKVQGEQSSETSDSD
The settings on record: Compound concentration 20.0 uM.

For experiment [2], the target named is Fibroblast growth factor receptor 2 (Homo sapiens) (UniProt P21802). The settings on record: Compound concentration 20.0 uM.
Description: Thermal Shift Assay. Domain: start/stop: T457-E768

For orientation: ΔTm means the shift of the melting midpoint relative to a reference.

Where “and” joins values, the source holds several entries; their conditions need not be identical. Identical values can stand only once. Residues, ends and D or L forms follow the SMILES beside them. *: point of attachment. CH2Cl = ClC*

Chain of Fibroblast growth factor receptor 2 (Homo sapiens) (P21802 22-821 limits assumed): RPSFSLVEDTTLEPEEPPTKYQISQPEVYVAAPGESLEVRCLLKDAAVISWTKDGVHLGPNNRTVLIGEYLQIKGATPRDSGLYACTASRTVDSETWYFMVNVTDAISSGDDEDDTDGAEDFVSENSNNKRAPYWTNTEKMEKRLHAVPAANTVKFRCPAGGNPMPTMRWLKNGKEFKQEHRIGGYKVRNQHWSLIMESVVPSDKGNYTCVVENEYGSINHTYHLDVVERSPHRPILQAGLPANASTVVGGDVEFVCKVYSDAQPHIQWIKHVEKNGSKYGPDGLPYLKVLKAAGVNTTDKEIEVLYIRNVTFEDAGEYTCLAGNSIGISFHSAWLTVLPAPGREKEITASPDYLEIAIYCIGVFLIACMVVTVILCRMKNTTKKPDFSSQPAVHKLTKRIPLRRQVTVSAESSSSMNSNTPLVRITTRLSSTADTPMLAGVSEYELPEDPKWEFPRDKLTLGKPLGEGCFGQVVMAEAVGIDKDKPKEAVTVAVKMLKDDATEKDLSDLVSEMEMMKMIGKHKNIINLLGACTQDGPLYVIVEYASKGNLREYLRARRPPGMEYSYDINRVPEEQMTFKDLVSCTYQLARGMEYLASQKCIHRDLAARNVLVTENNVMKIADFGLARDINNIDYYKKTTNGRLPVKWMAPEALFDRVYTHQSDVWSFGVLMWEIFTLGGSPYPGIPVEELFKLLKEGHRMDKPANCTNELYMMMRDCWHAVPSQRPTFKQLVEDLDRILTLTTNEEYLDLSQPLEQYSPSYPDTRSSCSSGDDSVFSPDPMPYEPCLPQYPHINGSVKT

For `CCO/N=C1\c2ccccc2-c2nc(C#N)c(C#N)nc21`, the ΔTm was 2.55 °C and 0.36 °C in experiment [1]; 0.21 °C and 0.32 °C in experiment [2].

For the compound `Cc1cccc(Nc2ccncc2S(=O)(=O)NC(=O)NC(C)C)c1`, the ΔTm in experiment [1] was 0.33 °C; in experiment [2], -0.51 °C.

Turning to `CCCCCCCCCCCCCC(=S)NCCCC[C@H](NC(=O)OCc1ccccc1)C(=O)Nc1ccccc1`, the results for the ΔTm in experiment [1] and in experiment [2] were 3.33 °C and 0.84 °C, respectively.

For `CC(C)N(C(=O)c1cc(F)ccc1Oc1cncnc1N1CC2(CCN(C[C@H]3CC[C@H](NS(C)(=O)=O)CC3)CC2)C1)C(C)C`, the values for the ΔTm in experiment [1] and in experiment [2] were 0.63 °C and -0.47 °C, respectively.

As for `COCCOc1cc(CC2CCN(CCc3ccc4c(c3)C(=O)CCO4)CC2)ccc1Br`, the ΔTm was 1.8 °C in experiment [1] and -0.65 °C in experiment [2].

In the case of `N[C@](CCCCB(O)O)(CCN1CCCCC1)C(=O)O`, the thermal shift (ΔTm) amounted to 2.66 °C in experiment [1] and 0.8 °C in experiment [2].

On to `COc1cc([C@@H]2Oc3c(O)cc([C@H]4Oc5cc(O)cc(O)c5C(=O)[C@@H]4O)cc3[C@H]2CO)ccc1O`, for which the ΔTm is 2.27 °C in experiment [1] and -0.46 °C in experiment [2].

On to `CN1CC[C@@H](Oc2ccc(F)c(-c3nc4c(o3)C(=O)c3ccccc3C4=O)c2Cl)C1`, for which the thermal shift (ΔTm) in experiment [1] is 0.26 °C; in experiment [2], -0.38 °C.

With `N[C@H]1CC[C@H](N[C@@H]2C[C@H]2c2ccccc2)CC1`, the ΔTm in experiment [1] amounted to 1.23 °C; in experiment [2], 0.55 °C.

With `CCCCCCCCCCCCCCCCNNC(=O)c1cccs1`, the ΔTm in experiment [1] is -0.84 °C; in experiment [2], 0.53 °C.

In the case of `O=C(Cc1ccccc1)c1cc(O)c(O)c([N+](=O)[O-])c1`, the ΔTm in experiment [1] stood at 0.33 °C; in experiment [2], 0.57 °C.

Turning to `COC(=O)[C@H]1[C@H]2C[C@@H]3c4[nH]c5cc(OC)ccc5c4CCN3C[C@H]2C[C@@H](OC(=O)c2cc(OC)c(OC)c(OC)c2)[C@@H]1OC`, the ΔTm in experiment [1] was 0.08 °C; in experiment [2] it was -0.07 °C.

For `N#Cc1c(N)[nH]c2cc(/C=C/c3cccc(F)c3)ccc12`, the ΔTm in experiment [1] is 6.38 °C; in experiment [2], 1.59 °C.

`N[C@@H](CC(=O)Nc1ccc(Oc2cc(F)c(F)cc2Br)cc1)C(=O)O`: the ΔTm in experiment [1] was 0.59 °C; in experiment [2] it was -0.01 °C.

`CN(Cc1ccccc1)c1ccc2cc(C(=O)O)c(=O)oc2c1`: the ΔTm in experiment [1] is 0.71 °C; in experiment [2], 0.34 °C.

In the case of `NCCOCCOCCNC(=O)Cc1ccc(Nc2nc(NCc3ccc(F)cc3)nc(NCC3CCCCC3)n2)cc1`, the figures for the thermal shift (ΔTm) in experiment [1] and in experiment [2] were 2.13 °C and 0.03 °C, respectively.

`Cc1n[nH]c(C)c1Cc1sc2c(c1C(=O)N1C[C@H](O)CO1)c(=O)n(C)c(=O)n2CC(C)C`: the ΔTm in experiment [1] is 2.27 °C; in experiment [2], 0.22 °C.

In the case of `N#C[C@@H]1CCCN1C(=O)[C@@H]1CCCN1C(=O)CCCc1ccccc1`, the ΔTm is -1.55 °C in experiment [1] and 0.84 °C in experiment [2].

For the compound `O=C(N1CCCC[C@H]1Cc1ccccc1)n1cc(-c2ccc(-c3ccccc3)cc2)nn1`, the ΔTm in experiment [1] was 1 °C; in experiment [2], 0.8 °C.

Turning to `CS(=O)(=O)c1ccc(Oc2cc(F)cc(C#N)c2)c2c1C(O)C(F)C2` (configuration not stated), the figures for the ΔTm in experiment [1] and in experiment [2] were 0.86 °C and -0.57 °C, respectively.

As for `Cc1c(F)c(N)cc(C(=O)Nc2cc(-n3cc(C(=O)NCCCN4CCOCC4)nn3)ccc2N2CCN(C)CC2)c1Cl`, the ΔTm was -0.29 °C in experiment [1] and 0.03 °C in experiment [2].

In the case of `CC(=O)N[C@@H](CC(C)C)C(=O)N[C@@H](CCC(=O)O)C(=O)N[C@@H](Cc1cnc[nH]1)C(=O)N[C@@H](CC(=O)O)C(=O)CCl` (Ac-LEHD-CH2Cl), the ΔTm in experiment [1] was -1.13 °C; in experiment [2], 0.65 °C.

In the case of `NC(=O)c1cc(F)cc2c1C(=O)N(C1CCN(C3CCC(F)(F)CC3)CC1)C2`, the ΔTm in experiment [1] was -0.15 °C; in experiment [2], -0.03 °C.

Consider `Cc1ccsc1C(=CCCN1CCC[C@@H](C(=O)O)C1)c1sccc1C`, for which the ΔTm in experiment [1] is 0.44 °C; in experiment [2] it was 0.37 °C.

Turning to `O=C(Oc1cccc(F)c1OC(=O)c1cccc(O)c1)c1cccc(O)c1`, the figures for the ΔTm in experiment [1] and in experiment [2] were 3.01 °C and 0.56 °C, respectively.

On to `CC(C)(C)OC(=O)Nc1ccc(-c2cc(C(=O)NCCCCCCC(=O)NO)no2)cc1`, for which the ΔTm in experiment [1] was 0 °C; in experiment [2] it was -3.33 °C.
